# Reference: patent publication US8309097B2, “C-type lectin binding molecules, identification and uses thereof” (Vereniging voor Christelijk Wetenschappelijk Onderwijs, priority 2002, dated 2012)
# Entries after “also recorded” stand apart in the source; their conditions may differ. Read-outs that look alike come from different tables or passages of the source.
# Key:
# [1] = biological target: T1, DC-SIGN on immature monocyte derived DC (Homo sapiens, UniProt Q9NNX6); experiment: Fluorescent bead adhesion assay, immature DC; format: cell-based
# T1 construct: Immature DC were cultured from monocytes in the presence of IL-4 and GM-CSF; endogenous in cells; host or cells: immature monocyte-derived dendritic cells
# T1 sequence (Q9NNX6 1-404): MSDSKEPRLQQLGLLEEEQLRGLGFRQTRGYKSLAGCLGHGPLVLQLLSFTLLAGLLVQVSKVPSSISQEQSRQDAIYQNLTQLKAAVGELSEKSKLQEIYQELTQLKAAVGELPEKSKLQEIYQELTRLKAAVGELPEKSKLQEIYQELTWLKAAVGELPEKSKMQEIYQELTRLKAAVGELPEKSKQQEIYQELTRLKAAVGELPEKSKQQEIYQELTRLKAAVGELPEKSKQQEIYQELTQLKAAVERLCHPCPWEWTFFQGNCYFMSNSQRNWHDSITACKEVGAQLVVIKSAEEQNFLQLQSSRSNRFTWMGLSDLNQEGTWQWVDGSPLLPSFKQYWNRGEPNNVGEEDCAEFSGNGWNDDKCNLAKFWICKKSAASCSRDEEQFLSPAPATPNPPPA
# granulocytes = experiment: DC-SIGN-Fc adhesion to granulocytes
# DC-SIGN-Fc [2] = biological target: T2, DC-SIGN-Fc (Homo sapiens, UniProt Q9NNX6); experiment: Soluble DC-SIGN-Fc adhesion assay (Fc ELISA)
# T2 sequence (Q9NNX6 64-404): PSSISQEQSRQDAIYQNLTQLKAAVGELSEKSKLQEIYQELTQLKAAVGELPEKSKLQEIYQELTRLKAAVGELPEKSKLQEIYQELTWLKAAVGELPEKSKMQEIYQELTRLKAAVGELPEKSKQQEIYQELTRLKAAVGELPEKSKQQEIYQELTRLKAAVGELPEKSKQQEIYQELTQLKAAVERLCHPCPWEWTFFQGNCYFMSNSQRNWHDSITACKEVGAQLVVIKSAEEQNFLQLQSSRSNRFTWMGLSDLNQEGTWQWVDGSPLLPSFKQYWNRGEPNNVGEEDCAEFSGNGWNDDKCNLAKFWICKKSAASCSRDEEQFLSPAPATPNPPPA
# [3] = biological target: T3, DC-SIGN expressed by K562 transfectants (Homo sapiens, UniProt Q9NNX6); format: cell-based
# T3 construct: expressed in transfected cells; host or cells: K562
# T3 sequence (Q9NNX6 1-404): T1 sequence (Q9NNX6 1-404)
# DC-SIGN-Fc [4] = biological target: T2, DC-SIGN-Fc; experiment: Immunoprecipitation and detection with DC-SIGN-Fc; format: binding; settings: immunoprecipitation
# Source text: FIG. 59. […] Cell-surface proteins are biotinylated and PMNs are lysed. Lane 1. negative control using ICAM-3 Fc to capture by IP proteins. Detection is peroxidase-labeled streptavidin. Lane 2. DC-SIGN-Fc is used to capture ligands biotinylated ligands from lysate; two protein bands are visible, the upper band consists of CD11b and CD66a, whereas the lower consists of CD18. Lane 3. Negative control; no bands are immune precipitated with anti-DC-SIGN antibodies. Lane 4, IP with antibodies against CD66acd; a faint band is visible containing CD66a. Lane 5, IP of CD11b; two bands are visible; the upper band is […] and the lower band is CD18m, which is co-immuneprecipitated with […]. Lane 6. IP with DC-SIGN ligands and detection with anti-CD66acd; CD66a is captured by DC-SIGN Fc. Lane 7. IP with DC-SIGN ligands and detection with anti-CD11b; CD11b is captured by DC-SIGN Fc. Lane 8. Negative control, IP with anti-DC-SIGN antibodies and detection with DC-SIGN-Fc. Lane 9. IP with anti-CD66acd and detection with DC-SIGN Fc; CD66a is bound by DC-SIGN on blot. Lane 10. IP with anti-CD11a and detection with DC-SIGN Fc; CD11a is bound by DC-SIGN on blot.
# Immunoprecipitation. […]
# [5] = biological target: L-SIGN expressed by K562 transfectants (Homo sapiens, UniProt Q9H2X3); format: cell-based
# L-SIGN expressed by K562 transfectants, sequence (Q9H2X3 whole entry, looked up): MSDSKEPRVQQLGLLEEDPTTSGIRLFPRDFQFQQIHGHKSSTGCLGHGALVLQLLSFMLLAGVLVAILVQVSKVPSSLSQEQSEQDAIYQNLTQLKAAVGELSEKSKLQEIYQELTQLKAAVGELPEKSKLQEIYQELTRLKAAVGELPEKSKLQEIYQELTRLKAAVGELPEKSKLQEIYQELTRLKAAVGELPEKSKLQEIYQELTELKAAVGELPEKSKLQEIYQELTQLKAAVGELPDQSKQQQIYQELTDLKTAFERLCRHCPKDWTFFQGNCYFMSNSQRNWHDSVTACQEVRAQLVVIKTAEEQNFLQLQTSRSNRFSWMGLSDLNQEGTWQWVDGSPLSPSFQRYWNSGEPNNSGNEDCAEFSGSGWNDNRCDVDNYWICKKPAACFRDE
# mSIGNR1 = mSIGNR1 (Mus musculus, UniProt Q8CJ91); format: cell-based, murine
# mSIGNR1, sequence (Q8CJ91 whole entry): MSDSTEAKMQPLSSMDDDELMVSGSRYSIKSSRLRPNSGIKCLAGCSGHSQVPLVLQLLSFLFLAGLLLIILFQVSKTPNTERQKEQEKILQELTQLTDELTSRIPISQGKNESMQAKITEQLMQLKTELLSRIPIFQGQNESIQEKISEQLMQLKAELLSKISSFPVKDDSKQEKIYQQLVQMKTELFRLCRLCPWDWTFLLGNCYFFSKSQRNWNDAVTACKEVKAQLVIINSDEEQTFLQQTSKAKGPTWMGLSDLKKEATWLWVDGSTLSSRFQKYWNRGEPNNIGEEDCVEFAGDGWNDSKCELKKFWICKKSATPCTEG
# immature DC = format: cell-based, human
# [6] = system: K562 transfectants expressing DC-SIGN; format: cell-based, human
compound,measurement,setting,value
O=C(O)CN(CCOCCOCCN(CC(=O)O)CC(=O)O)CC(=O)O [EGTA],inhibition of ManLAM binding by immature DC,[1],block
same,inhibition of DC-SIGN-Fc binding to granulocytes,granulocytes,blocked
same,inhibition of DC-SIGN-Fc binding to SEA,DC-SIGN-Fc [2]; coated SEA,completely inhibited
same,inhibition of DC-SIGN-Fc binding to M. tuberculosis and M. bovis BCG,DC-SIGN-Fc [2]; coated whole mycobacteria,inhibited
CD11b: Lewis X-expressing CD11b captured from PMN lysate,binding of ligand-coated beads to K562 DC-SIGN transfectants,[3],interacted strongly
same,"binding of DC-SIGN-Fc after α-1,3,4 Fucosidase treatment of the ligand",DC-SIGN-Fc [4],abrogated
same,binding of DC-SIGN-Fc to coated ligand,"DC-SIGN-Fc [2]; ELISA, ligand coated",high affinity binding
mannan,binding of ligand-coated beads to K562 DC-SIGN transfectants,[3],bind
same,inhibition of gp120 binding to DC-SIGN,[3],inhibited
same,inhibition of ManLAM binding by immature DC,[1],block
same,inhibition of SEA binding to DC,[1],strongly blocked
same,binding of ligand-coated beads to K562 L-SIGN transfectants,[5],bind
same,inhibition of gp120 binding to L-SIGN,[5],inhibited
same,binding of ligand-coated beads to K562 mSIGNR1 transfectants,mSIGNR1,bind
same,inhibition of gp120 binding to mSIGNR1,mSIGNR1,inhibited
same,inhibition of M. bovis BCG binding/infection of immature DC,immature DC,blocked the infection to a similar level as the DC-SIGN antibodies
same,inhibition of Neisseria IgtB binding to DC,immature DC,partly inhibit
same,inhibition of internalization of M. bovis BCG by K562 DC-SIGN transfectants,[6],blocked
same,inhibition of DC-SIGN-Fc binding to granulocytes,granulocytes,blocked
same,binding of DC-SIGN-Fc to coated ligand,DC-SIGN-Fc [2],binds
same,inhibition of DC-SIGN-Fc binding to M. tuberculosis and M. bovis BCG,DC-SIGN-Fc [2],inhibited
sialyl Lewis A,binding of ligand-coated beads to K562 DC-SIGN transfectants,[3],bind
same,binding of ligand-coated beads to K562 mSIGNR1 transfectants,mSIGNR1,bind
sialyl-Le^x,binding of ligand-coated beads to K562 mSIGNR1 transfectants,mSIGNR1,interacts
same,binding of DC-SIGN-Fc to coated ligand,DC-SIGN-Fc [2],completely abrogates the recognition; also recorded: lower binding affinity
"α1->3, α1->6 mannotriose",binding of ligand-coated beads to K562 DC-SIGN transfectants,[3],bound similarly to the glycoconjugates as DC-SIGN-Fc
same,binding of ligand-coated beads to immature DC,[1],preferentially bound by DC-SIGN
same,binding of DC-SIGN-Fc to coated ligand,DC-SIGN-Fc [2],binds; also recorded: high affinity
[…]-L-fucose,binding of DC-SIGN-Fc to coated ligand,DC-SIGN-Fc [2],lower binding affinity
